Results published in patent US11717508B2, “Compounds, compositions, and methods for inhibiting bacterial growth” (priority 2016, dated 2023).
Values joined by “and” are separate entries in the source; they are usually repeats but may differ in a detail not shown here. Equal entries are not always repeated. Where two headings read alike, the source gives them in different places.

Test system: CDC1551(ΔdosR) mutant
Assay type: cell-based
Details: for Counts per million (CPM): DosR mutant treated with HC101A, replicates 1, 2; for log2 Fold change: DosR mutant, HC101A vs DMSO

C[C@@H]1CC[C@H]2[C@@H](C)C(=O)O[C@@H]3O[C@]4(C)CC[C@@H]1[C@]32OO4 [HC101A, artemisinin, reference compound]
Counts per million (CPM) (gene MT1736): 181.3 CPM and 300.2 CPM | log2 Fold change (gene MT1736): −1.039 | Counts per million (CPM) (gene MT1775): 17.8 CPM and 12.82 CPM | log2 Fold change (gene MT1775): −1.012 | log2 Fold change (gene MT1836 Rv1787 PPE): 1.847 | Counts per million (CPM) (gene MT1854 Rv1804c): 12.83 CPM and 20.46 CPM | log2 Fold change (gene MT1854 Rv1804c): −1.101 | log2 Fold change (gene MT1893 Rv1845c): 1.059 | Counts per million (CPM) (gene MT1922 Rv1873): 11.35 CPM and 17.72 CPM | log2 Fold change (gene MT1922 Rv1873): −1.314 | Counts per million (CPM) (gene MT1969 Rv1918c PPE): 90.23 CPM and 98.57 CPM | log2 Fold change (gene MT1969 Rv1918c PPE): −1.009 | Counts per million (CPM) (gene MT2040 Rv1986): 79.07 CPM and 31.42 CPM | log2 Fold change (gene MT2040 Rv1986): −2.384 | log2 Fold change (gene MT2126 Rv2066 cobl): 1.049 | Counts per million (CPM) (gene MT2166 Rv2107 PE): 25.86 CPM and 35.24 CPM | log2 Fold change (gene MT2166 Rv2107 PE): −1.899 | Counts per million (CPM) (gene MT2167 Rv2108 PPE): 31.6 CPM and 38.76 CPM | log2 Fold change (gene MT2167 Rv2108 PPE): −1.672 | Counts per million (CPM) (gene MT2168): 9.545 CPM and 9.201 CPM | log2 Fold change (gene MT2168): −1.358 | log2 Fold change (gene MT2264 Rv2208 cobS): 1.264 | Counts per million (CPM) (gene MT2278 Rv2220 glnA1): 635.9 CPM and 701.1 CPM | log2 Fold change (gene MT2278 Rv2220 glnA1): −1.188 | Counts per million (CPM) (gene MT2284 Rv2225 panB): 197.5 CPM and 213.5 CPM | log2 Fold change (gene MT2284 Rv2225 panB): −1.005 | Counts per million (CPM) (gene MT2304 Rv2244 acpM): 831.8 CPM and 1,835.61 CPM | log2 Fold change (gene MT2304 Rv2244 acpM): −1.454 | Counts per million (CPM) (gene MT2305 Rv2245 kasA): 1,175.19 CPM and 2,060.94 CPM | log2 Fold change (gene MT2305 Rv2245 kasA): −1.196 | Counts per million (CPM) (gene MT2306): 704.1 CPM and 1,234.02 CPM | log2 Fold change (gene MT2306): −1.017 | Counts per million (CPM) (gene MT2391 Rv2329c narK1): 72.04 CPM and 74 CPM | log2 Fold change (gene MT2391 Rv2329c narK1): −1.058 | Counts per million (CPM) (gene MT2417): 8.836 CPM and 16.05 CPM | log2 Fold change (gene MT2417): −1.114 | Counts per million (CPM) (gene MT2503 Rv2428 ahpC): 372.7 CPM and 897.9 CPM | log2 Fold change (gene MT2503 Rv2428 ahpC): −1.173 | Counts per million (CPM) (gene MT2504 Rv2429 ahpD): 163.9 CPM and 315.8 CPM | Counts per million (CPM) (gene MT2506): 236.2 CPM and 203 CPM | log2 Fold change (gene MT2506): −1.06 | Counts per million (CPM) (gene MT2526 Rv2450c): 892.4 CPM and 239.7 CPM | log2 Fold change (gene MT2526 Rv2450c): −1.032 | log2 Fold change (gene MT2615 Rv2540c aroF): 1.402 | log2 Fold change (gene MT2631): 1.063 | Counts per million (CPM) (gene MT2698 Rv2623): 41.08 CPM and 44.83 CPM | log2 Fold change (gene MT2698 Rv2623): −1.072 | Counts per million (CPM) (gene MT2778 Rv2705c): 45.21 CPM and 56.67 CPM | log2 Fold change (gene MT2778 Rv2705c): −1.01 | Counts per million (CPM) (gene MT2849 Rv2779c): 26.89 CPM and 12.92 CPM | log2 Fold change (gene MT2849 Rv2779c): −1.668 | Counts per million (CPM) (gene MT2850 Rv2780 ald): 1,263.03 CPM and 369.1 CPM | log2 Fold change (gene MT2850 Rv2780 ald): −1.861 | log2 Fold change (gene MT2863 Rv2794c): 1.021 | Counts per million (CPM) (gene MT3065 Rv2987c leuD): 140.2 CPM and 20.16 CPM | log2 Fold change (gene MT3065 Rv2987c leuD): −1.094 | log2 Fold change (gene MT3110 Rv3026c): 1.612 | Counts per million (CPM) (gene MT3118 Rv3033): 22.06 CPM and 33.57 CPM | Counts per million (CPM) (gene MT3132): 35.54 CPM and 21.04 CPM | log2 Fold change (gene MT3132): −1.912 | log2 Fold change (gene MT3133 Rv3048c nrdG): −2.008 | log2 Fold change (gene MT3134 Rv3049c): −2.181 | log2 Fold change (gene MT3178 Rv3094c): −1.319 | log2 Fold change (gene MT3293 Rv3199c): 1.039 | log2 Fold change (gene MT3327 Rv3230c): 1.145 | log2 Fold change (gene MT3441 Rv3338): −1.641 | log2 Fold change (gene MT3481 Rv3371): −1.101 | log2 Fold change (gene MT3498 Rv3391 acrA1): −1.036 | log2 Fold change (gene MT3581 Rv3477 PE): −1.558 | log2 Fold change (gene MT3591 Rv3487c lipF): −1.301 | log2 Fold change (gene MT3947 Rv3839): −1.144 | log2 Fold change (gene MT3963 Rv3848): −1.017 | log2 Fold change (gene MT3969 Rv3854c): −2.018 | log2 Fold change (gene MT3970 Rv3855): −1.5 | log2 Fold change (gene MT3976 Rv3862c): −1.387 | log2 Fold change (gene MT3978 Rv3864): −1.324 | log2 Fold change (gene MT3988 Rv3874): −1.066 | log2 Fold change (gene MT3989 Rv3875 esat6): −1.043
